Measured values taken from publication PMC3433414, “Oral Administration of the Pimelic Diphenylamide HDAC Inhibitor HDACi 4b Is Unsuitable for Chronic Inhibition of HDAC Activity in the CNS In Vivo” (PLoS ONE, 2012).

Experiments:
[1] = target: T1, HDAC6 (Homo sapiens, UniProt Q9UBN7); assay: Two-step fluorogenic deacetylase assay, recombinant HDAC6; format: biochemical; conditions: up to 50 µM
T1 construct: full length HDAC6 (cat#50006); purchased BPS Bioscience (San Diego, CA) 50006
Excerpt: To assess the biochemical and cellular potency of 4b and its conversion products/metabolites, we utilized the two-step fluorogenic assay which measures the HDAC-mediated catalytic conversion of synthetic acetylated lysine substrates. In brief, on deacetylation of the substrates by HDAC activity, a protease site is unmasked which allows subsequent trypsin-mediated cleavage and release of the highly flourescent AMC molecules in a subsequent step of the assay. The substrates used were Lys_Ac_AMC (Bachem I-1875) for HDAC3 and (Ac)Arg-Gly-Lys(Ac) (Bachem I-1925) for HDAC1 and HDAC2. […] However, the relatively labile and sterically more demanding trifluoracetyl group is readily hydrolyzed by the catalytically less avid Class IIa enzymes, allowing measurement of Class IIa activity using the 2-step fluorogenic assay. […]
For evaluation of the class selectivity of the compounds, we assessed inhibition against purified recombinant human full length HDAC1 (cat# 50051), HDAC2 (cat# 50052), HDAC3-NcoR2 (cat# 50003) and HDAC8 (cat# 50008): as representative of Class I activity; catalytic domain HDAC4(αα 648–1057), HDAC5 (αα 657–1123; cat # 50005), HDAC7 (αα 518-end; cat # 50007) and HDAC9 (αα 604–1066; cat # 50009) activity: representing all Class IIa activity; and full length HDAC6 (cat#50006): representing Class IIb activity. […]

[2] = Chemical stability in formulation or solution; format: physicochemical; conditions: free base; LC-MS day 1 and after 7 days; with or without heating
Procedure: Thomas and colleagues reported that a solution of 4b at 1 mg/mL was previously obtained using this procedure. […] We therefore prepared both TFA and hydrochloride (HCl) salts of 4b to establish whether they could offer improved solubility. Neither salt form of 4b was particularly soluble in water (<1 mg/ml). […] A study of the stability of the TFA salt also raised another more worrying issue in the use of 2-hydroxypropyl-β-cyclodextrin–complexed 4b salts for potential in vivo studies. […] The 4b. […] The lower than expected initial quantification of 4b was most likely due to the TFA salt rapidly degrading upon heating. Indeed, we always found the presence of the cyclised benzimidazole conversion product, named throughout as product C1, in the salt formulations even at t = 0 after preparation. Furthermore, the suspension was not stable upon standing in the dark with gentle shaking at room temperature, with a further 28% decrease observed in parent (4b) concentration on day 7 analysis, compared to day 1.
According to Thomas et al, verification of an acute pharmacodynamic response (the reversal of transcriptional dysregulation in the R6/2 model) was achieved by the repeated once daily injection of 150 mg/kg 4b in 50∶50 DMSO: PBS for three consecutive days. […] The lack of any pharmacodynamic response predictive of central Class I HDAC inhibition when 4b was dosed orally at 150 mg/kg twice daily for 5 days confirmed this prediction.

[3] = Permeability and efflux in Caco2 monolayers; format: in vitro ADME; conditions: human
Procedure: Caco-2 cells (obtained from ECACC) were used after a 21-day cell culture period in 24-well Transwell plates (seeding density of 2×10^5 cells/well). Test compounds (10 µM) were dissolved in Hanks’ Balanced Salt Solution (HBSS) containing 25 mM HEPES (pH 7.4) and added to either the apical or basolateral chambers of a Transwell plate assembly. Duplicate wells were prepared per assay condition. Lucifer Yellow was added to the apical buffer in all wells to assess integrity of the cell layers by monitoring Lucifer Yellow permeation. As Lucifer Yellow (LY) cannot freely permeate lipophilic barriers, a high degree of LY transport indicates poor integrity of the cell layer.
After 1 hr incubation at 37°C, aliquots were taken from the acceptor chamber of each Transwell and added to acetonitrile containing analytical internal standard (carbamazepine) in a 96 well plate. Concentrations of test compound in the samples were measured by high performance liquid-chromatography/mass spectroscopy (LC-MS/MS).
Apparent permeability (Papp) values were calculated from the relationship: [drawing 4] […]
Acceptor = Chamber of Transwell in to which permeation of compound is measured: basal for A>B experiments and apical for B>A experiments.
The Efflux ratios, as an indication of active efflux from the apical cell surface, were calculated using the ratio of Papp B>A/Papp A>B.

T1 sequence (Q9UBN7 whole entry): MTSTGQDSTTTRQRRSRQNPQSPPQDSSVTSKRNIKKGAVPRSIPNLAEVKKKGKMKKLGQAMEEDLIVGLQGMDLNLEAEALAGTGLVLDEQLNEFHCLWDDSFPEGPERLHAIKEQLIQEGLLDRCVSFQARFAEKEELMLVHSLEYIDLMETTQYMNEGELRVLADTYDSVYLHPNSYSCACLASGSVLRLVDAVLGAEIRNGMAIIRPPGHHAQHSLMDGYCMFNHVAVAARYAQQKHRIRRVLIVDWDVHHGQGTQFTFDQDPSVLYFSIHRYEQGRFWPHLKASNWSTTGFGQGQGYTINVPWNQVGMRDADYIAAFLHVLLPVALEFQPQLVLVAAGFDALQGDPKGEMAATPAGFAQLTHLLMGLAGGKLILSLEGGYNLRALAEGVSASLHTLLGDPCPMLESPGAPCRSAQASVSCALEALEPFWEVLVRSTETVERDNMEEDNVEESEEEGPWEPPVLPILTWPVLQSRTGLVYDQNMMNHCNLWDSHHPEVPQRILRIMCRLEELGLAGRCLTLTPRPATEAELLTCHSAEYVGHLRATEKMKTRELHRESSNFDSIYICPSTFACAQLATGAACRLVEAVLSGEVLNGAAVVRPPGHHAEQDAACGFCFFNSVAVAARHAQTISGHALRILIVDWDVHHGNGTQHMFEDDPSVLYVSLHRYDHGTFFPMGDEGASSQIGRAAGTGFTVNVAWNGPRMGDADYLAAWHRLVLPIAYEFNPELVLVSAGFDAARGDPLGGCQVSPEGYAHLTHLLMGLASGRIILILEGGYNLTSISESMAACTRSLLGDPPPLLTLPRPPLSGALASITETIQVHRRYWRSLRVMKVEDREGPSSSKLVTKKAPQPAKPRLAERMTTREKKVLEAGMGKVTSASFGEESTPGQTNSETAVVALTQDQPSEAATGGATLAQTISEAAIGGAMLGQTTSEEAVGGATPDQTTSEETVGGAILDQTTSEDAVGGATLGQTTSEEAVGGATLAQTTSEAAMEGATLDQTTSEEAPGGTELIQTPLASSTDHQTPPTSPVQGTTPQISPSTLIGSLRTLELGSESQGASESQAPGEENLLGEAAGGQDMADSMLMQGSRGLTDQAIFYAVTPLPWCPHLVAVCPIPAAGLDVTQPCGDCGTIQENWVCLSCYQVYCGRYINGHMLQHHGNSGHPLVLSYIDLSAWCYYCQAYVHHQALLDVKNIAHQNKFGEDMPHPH

SMILES: Nc1ccccc1NC(=O)CCCCCC(=O)Nc1ccccc1 [Compound 4b]
- activity against HDAC6 [1]: No activity
- degradation in cyclodextrin suspension [2]: no degradation
- Papp A→B at 1 h, 10 µM ([3]; Caco-2, pH 7.4): 15.6 ×10⁻⁶ cm/s
- efflux ratio at 1 h, 10 µM ([3]; Caco-2, pH 7.4, read-out: effective efflux ratio): 3.5
